Test results reported in PubChem BioAssay (NCI).
Values joined by “and” are separate entries in the source; they are usually repeats but may differ in a detail not shown here. Equal entries are not always repeated.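 Growth conditions: 96-well plates. Treatment: test compound, 48 hours, 5 concentrations. Analysis: linear interpolation between bracketing concentrations; unreached endpoints set to highest concentration. The concentration for 50% growth inhibition is given as GI50. At the TGI there is no net growth.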

Experiments:
Assay in all cases: NCI tumour cell line growth inhibition, 48 h
DU-145 prostate = system: DU-145 prostate
M14 melanoma = system: M14 melanoma
HOP-18 NSCLC = system: HOP-18 NSCLC
TK-10 renal = system: TK-10 renal
SR leukemia = system: SR leukemia
ACHN renal = system: ACHN renal
T-47D breast = system: T-47D breast
MDA-N = system: MDA-N
BT-549 breast = system: BT-549 breast
HS 578T breast = system: HS 578T breast
786-0 renal = system: 786-0 renal
MDA-MB-435 = system: MDA-MB-435
PC-3 prostate = system: PC-3 prostate
P388/ADR leukemia = system: P388/ADR leukemia
SF-539 CNS = system: SF-539 CNS
MALME-3M melanoma = system: MALME-3M melanoma
CAKI-1 renal = system: CAKI-1 renal
SNB-78 CNS = system: SNB-78 CNS
SK-MEL-5 melanoma = system: SK-MEL-5 melanoma
SK-MEL-28 melanoma = system: SK-MEL-28 melanoma
DMS 273 small cell lung = system: DMS 273 small cell lung
SF-295 CNS = system: SF-295 CNS
NCI-H460 lung = system: NCI-H460 lung
K-562 leukemia = system: K-562 leukemia
HOP-62 NSCLC = system: HOP-62 NSCLC
HT29 colon = system: HT29 colon
SNB-19 CNS = system: SNB-19 CNS
IGROV1 ovarian = system: IGROV1 ovarian
KM20L2 colon = system: KM20L2 colon
COLO 205 colon = system: COLO 205 colon
KM12 colon = system: KM12 colon
NCI-H522 lung = system: NCI-H522 lung
HCT-116 colon = system: HCT-116 colon
RPMI-8226 leukemia = system: RPMI-8226 leukemia
RXF-631 renal = system: RXF-631 renal
XF 498 CNS = system: XF 498 CNS
U251 CNS = system: U251 CNS
SK-MEL-2 melanoma = system: SK-MEL-2 melanoma
OVCAR-4 ovarian = system: OVCAR-4 ovarian
OVCAR-8 ovarian = system: OVCAR-8 ovarian
EKVX NSCLC = system: EKVX NSCLC
HCC-2998 colon = system: HCC-2998 colon
DLD-1 colon = system: DLD-1 colon
UO-31 renal = system: UO-31 renal
SF-268 CNS = system: SF-268 CNS
LOX IMVI melanoma = system: LOX IMVI melanoma
NCI-H23 lung = system: NCI-H23 lung
A549 NSCLC = system: A549 NSCLC
A498 renal = system: A498 renal
NCI-H226 lung = system: NCI-H226 lung
M19-MEL melanoma = system: M19-MEL melanoma
CCRF-CEM leukemia = system: CCRF-CEM leukemia
UACC-257 melanoma = system: UACC-257 melanoma
SN12C renal = system: SN12C renal
HOP-92 NSCLC = system: HOP-92 NSCLC
HCT-15 colon = system: HCT-15 colon
DMS 114 small cell lung = system: DMS 114 small cell lung
OVCAR-5 ovarian = system: OVCAR-5 ovarian
OVCAR-3 ovarian = system: OVCAR-3 ovarian
SK-OV-3 ovarian = system: SK-OV-3 ovarian
SW-620 colon = system: SW-620 colon
UACC-62 melanoma = system: UACC-62 melanoma
MOLT-4 leukemia = system: MOLT-4 leukemia
RXF 393 renal = system: RXF 393 renal
SNB-75 CNS = system: SNB-75 CNS
LXFL 529 NSCLC = system: LXFL 529 NSCLC

COc1cc2cc(c1Cl)N(C)C(=O)C[C@H](OC(=O)[C@H](C)N(C)C(C)=O)[C@]1(C)O[C@H]1[C@H](C)[C@@H]1C[C@@](O)(NC(=O)O1)[C@H](OC)C=C/C=C(\C)C2
GI50 (DU-145 prostate): 0.0553 µM
GI50 (M14 melanoma): 0.00128 µM
TGI (HOP-18 NSCLC): > 95.6 µM and 239 µM
GI50 (TK-10 renal): 0.0144 µM
TGI (TK-10 renal): 0.0804 µM
GI50 (SR leukemia): 0.000336 µM
TGI (SR leukemia): 0.0106 µM
GI50 (ACHN renal): 0.00211 µM
TGI (ACHN renal): 0.0595 µM
GI50 (T-47D breast): 0.0142 µM
TGI (T-47D breast): 0.0714 µM
TGI (MDA-N): 0.0709 µM and 0.0274 µM
GI50 (BT-549 breast): 0.000623 µM
GI50 (HS 578T breast): 0.000745 µM
GI50 (786-0 renal): 0.0019 µM
GI50 (MDA-MB-435): 0.00168 µM
TGI (MDA-MB-435): 0.00755 µM and < 0.0146 µM
GI50 (PC-3 prostate): 0.0371 µM
TGI (P388/ADR leukemia): 1.87 µM and 9.07 µM

Cc1ccc(C)c(NC(=O)CCc2nc(=S)[nH][nH]2)c1
TGI (SF-539 CNS): > 100 µM
TGI (MALME-3M melanoma): > 100 µM
TGI (CAKI-1 renal): > 100 µM
TGI (SNB-78 CNS): > 100 µM
TGI (SK-MEL-5 melanoma): > 100 µM
TGI (M14 melanoma): > 100 µM
TGI (SK-MEL-28 melanoma): > 100 µM
TGI (HOP-18 NSCLC): > 100 µM
TGI (TK-10 renal): > 100 µM
TGI (SR leukemia): > 100 µM
TGI (DMS 273 small cell lung): > 100 µM
TGI (ACHN renal): > 100 µM
TGI (SF-295 CNS): > 100 µM
TGI (NCI-H460 lung): > 100 µM
TGI (K-562 leukemia): > 100 µM
TGI (HOP-62 NSCLC): > 100 µM
TGI (HT29 colon): > 100 µM
TGI (SNB-19 CNS): > 100 µM
TGI (IGROV1 ovarian): > 100 µM
TGI (KM20L2 colon): > 100 µM
TGI (COLO 205 colon): > 100 µM
TGI (KM12 colon): > 100 µM
TGI (NCI-H522 lung): > 100 µM
TGI (HCT-116 colon): > 100 µM
TGI (RPMI-8226 leukemia): > 100 µM
TGI (RXF-631 renal): > 100 µM
TGI (XF 498 CNS): > 100 µM
TGI (U251 CNS): > 100 µM
TGI (SK-MEL-2 melanoma): > 100 µM
TGI (OVCAR-4 ovarian): > 100 µM
TGI (OVCAR-8 ovarian): > 100 µM
TGI (EKVX NSCLC): > 100 µM
TGI (HCC-2998 colon): > 100 µM
TGI (DLD-1 colon): > 100 µM
TGI (UO-31 renal): > 100 µM
TGI (SF-268 CNS): > 100 µM
TGI (LOX IMVI melanoma): > 100 µM
TGI (NCI-H23 lung): > 100 µM
TGI (A549 NSCLC): > 100 µM
TGI (A498 renal): > 100 µM
TGI (NCI-H226 lung): > 100 µM
TGI (M19-MEL melanoma): > 100 µM
TGI (786-0 renal): > 100 µM
TGI (CCRF-CEM leukemia): > 100 µM
TGI (UACC-257 melanoma): > 100 µM
TGI (SN12C renal): > 100 µM
TGI (HOP-92 NSCLC): > 100 µM
TGI (HCT-15 colon): > 100 µM
TGI (DMS 114 small cell lung): > 100 µM
TGI (OVCAR-5 ovarian): > 100 µM
TGI (OVCAR-3 ovarian): > 100 µM
TGI (SK-OV-3 ovarian): > 100 µM
TGI (SW-620 colon): 33 µM
TGI (UACC-62 melanoma): > 100 µM
TGI (MOLT-4 leukemia): > 100 µM
TGI (RXF 393 renal): > 100 µM
TGI (SNB-75 CNS): > 100 µM
TGI (LXFL 529 NSCLC): > 100 µM
